The text below walks through data of patent publication US20230295212A1 (ROME Therapeutics, Inc., priority 2022, published 2023).

Where only a bound is given, the exact number is not on record here.

One data set has as its system human PBMC. The data set is described as follows: Decitabine-stimulated human PBMC assay (IFN-β, cell viability). The class given is cell-based. As to conditions: 5 days; for IFN-β level: anti-CD3/anti-CD28, decitabine 10 μM. As to the method:
EasySep buffer (32 mL, […] Technologies, cat. #20144) was used to dilute 8 mL of LRSC buffy coat (from fresh Leukopak) with gentle mixing. The diluted buffy coat (20 mL) was transferred into each of two SepMate 50 tubes, and the tubes were filled with 15 mL of Lyphoprep ([…], cat. #07851) density gradient. The SepMate tubes were then centrifuged at 1200G for 10 minutes at room temperature with the brake on. The top layer of supernatant was collected in SepMate tubes by quickly pouring it into a new 50 mL conical tube. The PBMCs were washed with EasySep buffer ×2 by centrifuging at 300G for 5 minutes. The cells were resuspended in 30 mL of EasySep and centrifuged at 100G for 5 minutes with the brake off, and the platelets were removed. The cells were then resuspended in 6 mL of 1×RBC lysis buffer (Invitrogen) and incubated at 37° C. for 5 minutes. 25 mL of EasySep buffer was then mixed into the tube and centrifuged at 300G for 5 minutes. The cells were resuspended in 10 mL of EasySep buffer and the cells were then counted with Cellometer (AO/PI). The PBMCs were resuspended in RPMI1640 (ThermoFisher)^+10% FBS (HyClone)^+μ/s at 3×10^6/mL. The PBMCs (100 μL, 300 k PBMCs) were then seeded in a 96-well flat bottom microplate (Corning) that had been precoated with 100 μL of anti-CD3 antibody (10 μg/mL in PBS, Biolegend) or PBS at 4° C., one day before the assay was commenced.
To each well the following solutions were added 1) 100 μL of cells (final cell number per well is 3×10^5 cell/well); 2) 25 μL of anti-CD28 antibody at 6×(5 μg/mL final concentration, Biolegend); 3) 25 μL of decitabine at 6×(10 μM final concentration); and 4) Compound in DMSO was dispensed directly into each well with a d300e digital dispenser (Tecan). The final concentration of DMSO for each well was normalized to 0.3%. The plate was incubated at 37° C. without any agitation for 5 days. Samples were collected 120 hours after incubation to determine IFN-0 and IL-2 levels using a U-PLEX Human IFN-β Assay Sector (5PL) (MSD, cat. #K151VIK-2).
After 5 days, the plate was spun down at 100×G for 5 minutes. Supernatants (100 μL) were collected for interferon β(IFN-β) analysis using the MSD assay noted above, and any residual supernatant was stored at −80° C.

For data set [1], the system named is interferon-stimulated gene (ISG) response. The data set is described as follows: In vivo decitabine challenge model in C57BL/6 mice (ISG response). As to conditions: decitabine i.p. 5 mg/kg, compound p.o. 0.6, 2.0, 6.0 mg/kg daily Day 0 to Day 4, IFIT2 v. GAPDH. Also noted: species or system mouse. As to the method:
Exemplary compounds were tested for ability to alter the interferon-stimulated gene (ISG) response in C57BL/6 mice treated with decitabine. Assay procedures and results are described below. Twenty 9-11 week old C57BL/6 mice were acclimated to the lab for at least 5 days. Compound 23 was prepared in a 0.5% methylcellulose solution for p.o. administration. Decitabine (Sigma-Aldrich) was dissolved in sterile PBS (pH 7.4) and dosed within 30 minutes of preparation of the solution. Doses of both the compound and decitabine were administered once a day, every day from Day 0 to Day 4. On Day 0, mice were split into five groups of five mice and given their first dose of decitabine (i.p., 5 mg/kg) and compound 23. Dosing groups were: Decitabine and compound 23 were administered daily from Day 0 to Day 4. All mice were euthanized 1 hour after the last dose administration on Day 4. Spleens, liver, and terminal colon were collected, along with plasma from each animal. The fold changes in interferon-stimulated gene (ISG) expression was calculated by first normalizing to GAPDH gene using the Delta CT method. The CT (gene of interest)—CT (reference gene) was calculated to generate a delta CT for all samples. The fold change was then calculated by taking the Log2(Delta CT(control)—Delta CT (experimental). The control in this example was the PBS control animal group. The Taqman duplex assay was used to determine levels of GAPDH v. IFIT2. Twenty 9-11 week old C57BL/6 mice were acclimated to the lab for at least 5 days. Compound 2 was prepared in 20% PEG400 in PBS (final pH 4.5) for p.o. administration. Decitabine (Sigma) was dissolved in sterile PBS (pH 7.4) and dosed within 30 minutes of preparation of the solution. Doses of both Compound 2 and decitabine were administered once a day. On Day 0, mice were split into five groups of five mice and given their first dose of decitabine and Compound 2. […] The fold changes in interferon-stimulated gene (ISG, specifically IRF7 and MX1) expression was calculated by first normalizing to GAPDH gene using the Delta CT method. […]

In data set [2] the target is T1, LINE1 reverse transcriptase (Homo sapiens, UniProt O00370).
T1 construct: expressed in transfected cells; host or cells: HeLa Tet-On 3G (Takara, cat no 631183)
The data set is described as follows: Stable artificial-intron Cis LINE1 reporter assay (HeLa Tet-On 3G, Firefly luciferase). The class given is cell-based. As to conditions: HeLa L1 artificial-intron reporter cells, doxycycline 500 ng/mL, 72 h, class symbols. The method, boiled down: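 HeLa Tet-On 3G clone stably carrying a bi-directional doxycycline-inducible artificial-intron LINE1 reporter, plated at 8,000 cells/well onto serially diluted compound. Expression induced with 500 ng/mL doxycycline (final); Firefly luciferase luminescence (Dual-Glo) read 72 h after plating as LINE1 activity.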
On the technique in general: In a reporter assay the amount or activity of a reporter protein is the signal.

Data set [3] has as its system THP1-Dual KO-TREX1 xenograft tumors. The data set is described as follows: Altering IFN production in THP1 TREX1 KO xenografts (compounds 2, 25, 40). As to conditions: CB-17 SCID mice, decitabine 5 mg/kg IP, test compound 10, 30 or 100 mg/kg PO once daily 4 days, tumors 24 h post-last dose. The class given is in vivo, mouse. As for the experimental part:
Exemplary compounds 2, 25 and 40 were tested for their ability to alter IFN levels in THP1-Dual™ KO-TREX1 xenografts in mice. Assay procedures are described below.
CB-17 SCID female mice were inoculated subcutaneously with 10 million THP1-Dual™ KO-TREX1 cells in 200 μl PBS with Matrigel (1:1) and grouped when tumor volume reached 350-400 mm^3. Mice bearing THP1-Dual™ KO-TREX1 xenograft tumors were then separated into 5 groups. Three groups were administered: (1) decitabine (DAC) at 5 mg/kg IP, once daily, for 4 days, and (2) test compound at 10, 30, or 100 mg/kg, PO, once daily, for 4 days. One group was administered decitabine (DAC) at 5 mg/kg IP, once daily, for 4 days, and the test compound vehicle control. The final group was administered the vehicle control from both the test compound and the vehicle control from decitabine. Decitabine is formulated in sterile PBS, pH 7.4, and Compound 2, 25, and 40 were formulated in 20% PEG400 in PBS.
Tumors were harvested 24 h post-last dose administered on day 4, ground in PBS at 50 Hz for 5 min, and kept on ice for 30 min while being vortexed every 5 min. […] Equal amounts of proteins were added to 96-well black plates, and luciferase signal was measured using the QUANTI-Luc™ detection medium according to manufacturer's instructions. Luminescence was measured using the EnVision® 2105 Multimode Plate Reader. […]

For data set [4], the target named is T2, HERV-K reverse transcriptase (Homo sapiens, UniProt V9H0F6).
T2 construct: fused on or other part: C-terminal 8xHis tag
T2 sequence (V9H0F6 entry or part of it): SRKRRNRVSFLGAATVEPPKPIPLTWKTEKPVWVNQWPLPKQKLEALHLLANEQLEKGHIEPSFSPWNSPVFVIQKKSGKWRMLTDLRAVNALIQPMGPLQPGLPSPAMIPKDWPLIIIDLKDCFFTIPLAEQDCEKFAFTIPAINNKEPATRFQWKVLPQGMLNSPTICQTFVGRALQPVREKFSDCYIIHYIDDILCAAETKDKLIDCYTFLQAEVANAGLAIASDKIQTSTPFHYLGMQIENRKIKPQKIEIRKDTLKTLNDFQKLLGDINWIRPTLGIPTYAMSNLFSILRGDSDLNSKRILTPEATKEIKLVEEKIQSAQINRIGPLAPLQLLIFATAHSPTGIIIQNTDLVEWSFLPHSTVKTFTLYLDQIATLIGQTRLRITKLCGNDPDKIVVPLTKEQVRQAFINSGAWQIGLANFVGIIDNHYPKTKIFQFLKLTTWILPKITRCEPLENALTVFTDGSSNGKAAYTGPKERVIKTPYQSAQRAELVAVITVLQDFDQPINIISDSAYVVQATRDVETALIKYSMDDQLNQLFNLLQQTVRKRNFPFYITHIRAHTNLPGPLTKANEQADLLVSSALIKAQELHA
Nature of the data set: Homogeneous time-resolved fluorescence (HTRF) HERV-K RT assay. As to conditions: triphosphate analogs, HERV-K enzyme 16 ng/well, 25° C. 30 minutes. The class given is biochemical. As to the method:
Exemplary triphosphate analogs were tested for ability to inhibit HERV-K reverse transcriptase using a homogeneous time-resolved fluorescence (HTRF) assay. Assay procedures and results are described below.
The HERV-K reverse transcriptase homogeneous time-resolved fluorescence (HTRF) assay was performed in a 384-well format with HERV-K reverse transcriptase (2-596)-8His protein. Baculoviruses were created using Bac-to-Bac technology (Invitrogen). pFastflac donor plasmids containing HERV-K reverse transcriptase sequence (NCBI GenBank number AAC63291.1, J. Virology (1999) Vol. 73, No. 3, pp. 2365-2375) were transformed into DH10 Bac cells following the manufacturer's instructions. Recombinant bacmids were then isolated clonally and transfected into SF9 cells with lipofectin. HERV-K reverse transcriptase was expressed in the SF9 insect cells and then purified using immobilized metal affinity chromatography (IMAC) followed by size-exclusion chromatography (SEC).
Test compound was serially diluted in DMSO and further diluted in the assay buffer (50 mM Tris-HCl, 50 mM KCl, 10 mM MgCl2, 10 mM DTT, pH 8.1) to achieve a final DMSO concentration of 1%. The serially diluted compound was mixed with 16 ng/well of HERV-K enzyme, 5 nM of pre-annealed template/biotin-primer pair (synthesized at Geneway Biotechnology), 10 nM of Fluorescein-12-dCTP fluorescent probe (PerkinElmer), and 1 mM dGTP, dATP, and DTTP (ThermoFisher). The template/biotin-primer sequences were:
After incubating at 25° C. for 30 minutes, the detection reagent 20 mM EDTA with streptavidin-terbium cryptate (Cisbio Bioassay) in the PPI buffer (Cisbio Bioassay) was added, and the mixture was incubated at 25° C. for 60 minutes. At the end of the incubation, fluorescence was read at ex/em=337/485 nm and ex/em=337/520 nm on an Envision 2104 plate reader (PerkinElmer). The fluorescence ratio at 520/485 nm was used for the calculation. […] IC50 values were calculated by fitting the compound dose inhibition curve with a 4-parameter non-linear regression equation.

Data set [5] deals with T3, LINE1 reverse transcriptase (recombinant MBP-tagged LINE1 protein (238-1061)) (Homo sapiens, UniProt O00370).
T3 construct: recombinant MBP-tagged LINE1 protein (238-1061); made in house
Nature of the data set: Homogeneous time-resolved fluorescence (HTRF) LINE1 RT assay. The class given is biochemical. As to conditions: triphosphate analogs, LINE1 enzyme 64 ng/well, 25° C. 60 minutes. As for the experimental part:
Exemplary triphosphate analogs were tested for the ability to inhibit LINE1 reverse transcriptase using a homogeneous time-resolved fluorescence (HTRF) assay. Assay procedures and results are described below.
The LINE1 reverse transcriptase homogeneous time-resolved fluorescence (HTRF) assay was performed with recombinant MBP-tagged LINE1 protein (238-1061) (generated and purified according to procedures in Dai L. et al. BMC Biochemistry 2011; 12:18) in a 384-well format. Test compound was serially diluted in DMSO and further diluted in the assay buffer (50 mM Tris-HCl, 50 mM KCl, 10 mM MgCl2, 10 mM DTT, pH 8.1) to achieve a final DMSO concentration of 1%. The serially diluted compound was mixed with 64 ng/well of LINE1 enzyme, 5 nM of pre-annealed template/biotin-primer pair (synthesized at Generay Biotechnology), 10 nM of Fluorescein-12-dCTP fluorescent probe (PerkinElmer), and 1 μM dGTP/dATP/dTTP (ThermoFisher Scientific) in the assay buffer. The template/biotin-primer sequences were as follows:
After incubating at 25° C. for 60 minutes, the detection reagent (20 mM EDTA with streptavidin-terbium cryptate, Cisbio Bioassay) in the PPI buffer (Cisbio Bioassay) was added, and the mixture was incubated at 25° C. for 30 minutes. At the end of the incubation, fluorescence was read at ex/em=337/485 nm and ex/em=337/520 nm on an Envision 2104 plate reader (PerkinElmer). The fluorescence ratio at 520/485 nm was used for the calculation. […] The IC50 was calculated by fitting the compound dose inhibition curve with a 4-parameter non-linear regression equation.
(TR-FRET usually uses a lanthanide donor and a delayed reading to cut background.)

The term IC50 denotes the midpoint of a concentration-inhibition curve. Turning to `C#C[C@]1(CO)O[C@@H](n2cnc3c(N)nc(F)nc32)C[C@@H]1O` [Compound 23, (2R,3S,5R)-5-(6-amino-2-fluoro-9H-purin-9-yl)-2-ethynyl-2-(hydroxymethyl) tetrahydrofuran-3-ol], in the data set on human PBMC, the IFN-β level result is reported as “activated production of IFN-β”. The “change in interferon-stimulated gene (ISG) response (FIG. 2A)” value in data set [1] is “change in ISG response”. Also, the IC50 in data set [2] is not above 0.05 µM.

With `C#C[C@]1(CO)O[C@@H](n2cnc3c(N)nc(Cl)nc32)C[C@@H]1O` [Compound 25, (2R,3S,5R)-5-(6-amino-2-chloro-9H-purin-9-yl)-2-ethynyl-2-(hydroxymethyl) tetrahydrofuran-3-ol], the IFN-β level entry with human PBMC was “activated production of IFN-β”. In addition, in data set [2], the IC50 was not above 0.05 µM.

Regarding `Nc1ccn([C@@H]2O[C@@](CO)(CCl)[C@@H](O)[C@@H]2F)c(=O)n1` [Compound 40, 4-amino-1-((2R,3S,4R,5R)-5-(chloromethyl)-3-fluoro-4-hydroxy-5-(hydroxymethyl)tetrahydrofuran-2-yl)pyrimidin-2(1H)-one], in data set [3], the “inhibition of DAC-induced IFN signal in THP1 tumors” value is “potent inhibition of DAC-induced IFN signal”. Also, the IFN-β level entry in the data set on human PBMC is “inhibition of IFN-0”. For the same compound, the cell viability result in the data set with human PBMC (decitabine 10 μM) is “some cell viability losses at higher concentrations”. Also, the IC50 in data set [2] was not above 0.05 µM.

`Nc1nc(=O)n([C@@H]2O[C@](CBr)(COP(=O)(O)OP(=O)(O)OP(=O)(O)O)[C@@H](O)[C@@H]2F)cc1F` [Compound 86-TP, ((2R,3R,4S,5R)-5-(4-amino-5-fluoro-2-oxopyrimidin-1(2H)-yl)-2-(bromomethyl)-4-fluoro-3-hydroxytetrahydrofuran-2-yl) methyl tetrahydrogen triphosphate; tetrakis(triethylamine)]: the IC50 in data set [4] is more than 10 µM; in data set [5], 1.61 µM.
